Where two headings read alike, the source gives them in different places.
Experiments:
[1] = cited from earlier work
[2] = Aspen Plus absorber/stripper process model, CO2 vapor liquid equilibrium; details: 11% mole fraction
Excerpt: For example, the suitability of a PEP variant for non-enzymatic carbon capture can be evaluated by modeling. The Electric Power Research Institute (EPRI; Palo Alto, CA) maintains and operates Aspen Plus process models based on the absorber/stripper configuration shown in FIG. 21 and standard operational parameters (e.g., as described in the Examples). These models are configured to accept generalized solvent (absorbent) properties and calculate the resulting energy penalty. Model inputs can include the solubility, viscosity, and heat capacity of the PEP variant, as well as the CO2 vapor liquid equilibrium (VLE) of the underlying carbon capture reaction equilibrium (absorption/desorption). VLE describes the number of moles CO2 per unit volume solution absorbed via reaction and dissolution as a function of CO2 partial pressure above solution. […] At higher temperature (e.g., 120° C. stripper), reactants are favored and HCO3 desorbs, releasing CO2 back into the gas phase for capture and compression. The difference ACO2 between these temperature extremes determines the absorption capacity of the solvent, or cyclic capacity of the absorber/stripper system.
These models can be used to quantify the energy penalty of a PEP variant for carbon capture chemistry relative to the MEA benchmark. […] The improvement can be evaluated at the temperatures of the absorber (40° C.) and stripper (120° C.).

[3] = Shear viscosity by Green-Kubo relation, MD simulation; details: aqueous solution
Procedure: These simulations were performed under the same conditions and with the same forcefield as the PEP simulations. The shear viscosity of a liquid can be computed through several different atomistic simulation methods. […] In this method, the shear viscosity is obtained from the integral over time of the pressure tensor autocorrelation function: where V is the volume of the system, kB is the Boltzmann constant, T is temperature, Pxy denotes the element xy of the pressure tensor, and the angle bracket refers to the ensemble average. Viscosity plays an important role in pumping costs for moving aqueous PEP solutions between the absorber and stripper.

[4] = in water at 298 K; non-reactive MD literature; cited from earlier work
[5] = pure water; cited from earlier work

Compound | Enthalpy of Solution, Literature value ([1]; 3 m to 4 m) | Enthalpy of Solution, Literature value ([1]; 3 m to 5 m) | Enthalpy of Solution, Literature value ([1]; 4 m to 5 m) | other results
CC(=O)O [Acetic Acid] | -0.0461 kcal/mol | -0.0418 kcal/mol | -0.088 kcal/mol | –
O=CO [Formic Acid] | 0 kcal/mol | 0 kcal/mol | 0 kcal/mol | –
NCCO [MEA, monoethanolamine] | – | – | – | CO2 remaining bound in solution during absorber-stripper cycling ([2]; CCNG): 16%; CO2 remaining bound in solution during absorber-stripper cycling ([2]; SCPC): 29%
C=C(OP(=O)(O)O)C(=O)O [PEP, phosphoenolpyruvate] | – | – | – | viscosity relative to the standard MEA solution ([3]; 45 to 55 wt %): roughly triple; real viscosity ([3]; 45 to 55 wt % (9.8 mol %), estimated): about 3 mPa*s
O=C(O)O [bicarbonate] | – | – | – | diffusion coefficient, published literature [4]: 1.17×10^−9 m^2s^−1
O [water] | – | – | – | viscosity, expected value [5]: around 0.79 mPa·s

Reference: US20240342685A1, “ABSORBENT COMPOUNDS FOR CAPTURING CARBON DIOXIDE” (The Regents of the University of California, priority 2021, published 2024)
